The source of these data is patent US20120046273A1, “COMPOUNDS AND COMPOSITIONS FOR COGNITION-ENHANCEMENT, METHODS OF MAKING, AND METHODS OF TREATING” (MITHRIDION, INC., priority 2009, published 2012).

Data set [1] can be described thus: Serum pharmacokinetics of immediate release capsules in human subjects. As to conditions: male; for Cmax / half-life: oral. The data set is classed as in vivo. On the procedure:
The hydrochloride salt of MCD-386 (“MCD-386 HCl”) was formulated with the following excipients and loaded into #3 hard gelatin capsules (5mg dose) or #2 hard gelatin capsules (0.2 mg dose).
(§1) A single 5 mg capsule or 5×0.2 mg capsules (1 mg total dose) were administered orally to healthy male volunteer human subjects with 125 ml of water. Six such subjects receiving the 5 mg dose, and a different 6 subjects received the 1 mg dose.
Venous blood samples were drawn at various intervals after dosing from each subject into standard tubes for bioanalytical and pharmacokinetic analysis. The blood was allowed to clot, and the serum separated, using common clinical laboratory techniques. Serum samples were stored at −20 deg C. until used for analysis.
MCD-386 HCl, which exists in serum principally as the protonated form of MCD-386, was assayed in clinical serum samples as follows. 200 μL aliquots of serum samples were spiked with 50.0 μL of diluent for subject samples and QC samples and 50 μL of the appropriate intermediate standard solution for standards. Twenty five microliters (25.0 μL) of working internal standard stock solution and 40.0 μL of 10 N sodium hydroxide was then added and the samples were vortex mixed. Three milliliters (3.00 mL) of ethyl acetate was added followed by 5 minutes of vigorous vortexing and centrifugation. The top organic layer was transferred to a clean tube, evaporated to dryness, and the sample was reconstituted with 100 μL of diluent (0.1% formic acid). A 10 μL aliquot of this reconstituted sample was injected into Phenomenex Synergy 4 μ POLAR-RP, 75×2.0 mm (P/N 00C-4336-B0) on a Waters Acuity UPLC LC system, and eluted using a gradient of from 12% to 90% acetonitrile containing 0.1% formic acid/0.1% formic acid in water. The eluant flow of the LC was injected by Turbo Ion Spray (positive ion) into a Sciex API 4000 (Applied Biosystems). The MS/MS transitions monitored were 181.1 m/z to 111.0 m/z for MCD-386 HCl and 186.1 m/z to 111.1 m/z for the internal standard, D5- MCD-386 HCl. The calibration curve was linear between 0.100 ng/mL and 50.0 ng/mL for MCD-386 HCl. The lower limit of quantitation (LLOQ) was 0.100 ng MCD-386 HCl per mL of serum. MCD-386 HCl concentrations are expressed as free base.
The bioanalytical results were analyzed using Win Nonlin software and common pharmacokinetic methods known to those skilled in the art.

Data set [2] in a line: Metabolites in human serum samples. The data set is classed as in vivo. The conditions noted are these: 5mg dose cohort. How it is done:
The bioanalytical method for the extraction of metabolites from serum samples entailed adding 450 uL of a 90% acetonitrile +0.1% formic acid solution to 50 uL of the serum samples. The samples were vortexed and centrifuged at 16,000×g at 4° C. for 10 minutes. The supernatants were transferred to 3K molecular weight cut-off (MWCO) spin filters (Pall, Nanosep, #82031-346). Samples were filtered by centrifugation at 13,000×g at 4° C. for 20 minutes. The filtrates were transferred to a 96-well plate and sealed for LC/MS/MS analysis. The system used for this analysis was a Shimadzu Prominence HPLC system. […] The autosampler was maintained at 4° C. Injection volumes for all samples and standards were 40 uL. MRM methods for two possible metabolites were made. An API 3200 triple-quadrupole mass spectrometer with a Turbo V source (Applied Biosystems) was used, following commonly used procedures which would be readily set up by a person skilled in the art of LC-MS/MS. The counts of the characteristic parent and product ions of the free base metabolites were converted to concentration units by comparison with a standard calibration curve.

The test system of data set [3] is healthy male volunteer human subjects. Kind of data set: Cholinergic side effects of immediate release capsules in human subjects. The data set is classed as in vivo. How it is done: as §1
Subjects were monitored, among other things, for typical signs of muscarinic cholinergic action, such as increased salivation, lachrimation and diaphoresis.

In data set [4] the test system is apomorphine induced climbing. Kind of data set: Apomorphine induced climbing model of psychosis. Type of data set: in vivo, CD-I mice. The conditions noted are these: mice, sc. On the procedure:
As described in Costall et. al. European Journal of Pharmacology 1978, 50, 39. individual CD-I mice, 1-2 months old, were placed in a cylindrical wire mesh cage (13.2 cm high×13.2 cm diameter) constructed of steel wire 1 mm thick spaced at 1.2 cm^2. Cylinders were placed in a standard OptiMICE mouse cage (29×32×9×29 cm wide and 14 cm high) with adequate wood chip bedding provided. Observations of climbing (defined as 3 or more paws off the ground) were carried out every 5 minutes at a duration of 1 minute for 30 minutes. Animals were injected subcutaneously under isoflurane anesthesia with test compounds, reference compounds, which included clozapine, haloperidol, olanzapine and xanomeline, or PBS as a control. This was followed 5 minutes later by 2 mg/kg apomorphine hydrochloride. All drugs were dissolved in PBS or a mixture of (by volume) 96% PBS and 4% hydroxypropyl-beta-cyclodextrin, and dosed at a rate of 5 ml per kilogram of body weight. Following injections, animals were replaced in the mesh cages and observed for climbing (defined as 3 or more paws off the ground) every 5 minutes for a duration of 1 minute for 60 minutes after dosing.

Data set [5] can be described thus: Brain concentrations in rats after oral gavage. Type of data set: in vivo, rat. As to conditions: rat, 10 mg/kg po, relative to MCD-386. On the procedure: Long-Evans Hooded rats (Charles River: male, 250-350 g) were dosed with solutions of test compounds in PBS by oral gavage. At the desired time after dosing, the animals were anesthetized with isoflurane, and then euthanized by cervical dislocation. Blood was obtained by cardiac puncture, transferred to a 1.5 mL microcentrifuge tube containing 15U Heparin, and the plasma recovered after centrifugation. Brains were dissected, weighed, immediately chilled to 4° C., and homogenized using a PowerGen 125 homogenizer in five volumes of ice-cold 2% formic acid. Proteins were precipitated from plasma and brain homogenate with two and five volumes respectively of ice-cold 2% formic acid and clarified by centrifugation. The supernatant was ultra-filtered by centrifugation through a 3K MWCO spin column (Pall Life Sciences), following the manufacturer's instructions. The concentration of compound in the ultra-filtrate was subjected to reverse-phase liquid chromatography using a 150×2.1 mm Agilent C8 reverse-phase column on a Shimadzu Prominence LC, eluting the compounds with a gradient of 2% to 50% of acetonitrile+0.1% formic acid for compound MI-50,382, or an isocratic flow of 2% acetonitrile+0.1% formic acid for the rest of the compounds listed. The concentration of the compound in the column effluent was measured using an Applied Biosystems API-3200 triple quadrupole mass spectrometer equipped with an electrospray sample injection system. The counts of the characteristic parent and product ions of each test compound were converted to concentration units by comparison with a standard calibration curve.

The nature of data set [6]: Brain/plasma concentration ratio after oral dosing to rats. The conditions noted are these: rat.
The nature of data set [7]: Metabolites in serum and urine of dosed rats (LC-MS). The data set is classed as in vivo. As to conditions: rat serum/plasma or urine, oral dosing. On the procedure:
Oxadiazoles disclosed herein as well as other oxadiazoles were investigated to determine the formation of metabolites. Animals were dosed, blood taken, serum prepared, serum proteins precipitated and ultrafiltrates prepared as described in Example 6. In separate experiments, urine was collected from rats for 16-24 hours after dosing, using standard metabolic cages. The urine container and collected urine were maintained at 4° C. Urine was lyophilized, taken back into water. The ultrafiltrate was prepared by adding formic acid to a final concentration of 1% to the urine samples, then filtered through a 0.2 um nylon membrane. The ultrafiltrate was subjected to LC-MS analysis. Instead of measuring the product ions in Q3, manual Q1 scans of the liquid chromatograph were undertaken, seeking parent ions of potential metabolites of the compounds. The criteria for identifying metabolites were as follows: (1) the ion should be present in the sera or urines of dosed rats, but not in sera or urines from non-dosed rats (2) the ion should be identifiable as a metabolic derivative of the dosed compound (e.g. loss of a functional chemical moiety, addition of a hydroxyl group or a glucuronic acid moiety, etc). Metabolites were determined not to be present if no compound meeting the above criteria could be detected in serum or urine.

Data set [8] in a line: Plasma concentration in rats, iontophoresis patch versus oral gavage. Type of data set: in vivo. The conditions noted are these: Long Evans Hooded, rat. The source says:
Two patches were made up, consisting (in order from the outer layer to the skin contacting surface, respectively): adhesive tape (Transpore, 27 mm wide, 3M), circular stainless steel electrodes (22 mm dia) with a central hole for a stainless steel machine screw to which the electrode wire was attached, and 2 layers of 3MM CHR filter paper (Cat #3030-861, Whatman International, Ltd).
The mid-dorsal area of a Long Evans Hooded rat (approximate weight, 320 grams), surgically prepared with a jugular vein catheter (Charles River), was shaved and the skin was then cleaned using an Electrode Prep Pad (Professional Disposables, Inc, Cat #B59800). […]
Blood (400 μl) was withdrawn from the catheters in each rat every 30 minutes, transferred to 1.5 ml centrifuge tubes containing heparin (15 units/tube), and the plasma was separated by centrifugation from the cellular components. The plasma samples were maintained at 4 deg C. until analyzed. […]
The ultra-filtrates were subjected to reverse-phase liquid chromatography using a 150×2.1 mm Agilent C8 reverse-phase column on a Shimadzu Prominence LC, eluting the MCD-386 with an isocratic flow of 2% acetonitrile+0.1% formic acid. The concentration of MCD-386 in the column effluent was measured using an Applied Biosystems API-3200 triple quadrupole mass spectrometer equipped with a Turbo V source (electrospray sample injection) system. […]

Where a name gives a salt, the structure may show the parent alone. Read-outs that look alike come from different tables or passages of the source.

The Cmax is the highest concentration seen after dosing. For orientation: Tmax means the time from dosing to the highest level. In general, half-life refers to the time needed for the level to fall by half in the phase considered. Turning to `CCc1noc(C2CN=CNC2)n1` (stereo not drawn) [MCD-386 HCl, 5-(3-ethyl-1,2,4-oxadiazol-5-yl)-1,4,5,6-tetrahydropyrimidine], the values for the Cmax in data set [1] (6 subjects receiving 1 mg of MCD-386 HCl) and in data set [1] (6 subjects receiving 5 mg of MCD-386 HCl) were at most 8 ng/mL and 7.9 to 25.2 ng/mL, respectively. Further, in data set [1] (oral immediate release capsules), the Tmax fell in the range of 1 to 1.5 h. Moreover, the half-life in data set [1] (0.2 mg, cohort of 6 subjects receiving 0.2 mg, +/- SD, read-out: mean half-life (converted)) was 1.2 h; in data set [1] (1 mg, 1 mg cohort, +/- SD, read-out: half-life of the free base (converted)), 1.44 h; in [1] (5 mg, 5 mg cohort excluding one subject, read-out: mean half-life for the other 5 subjects (converted)), 1.44 h; in [1] (5 mg, 5 mg cohort, +/- SD, read-out: half-life of the free base (converted)) it was 1.71 h; in data set [1] (5 mg, 5 mg cohort, subject with the longest half-life, read-out: half-life in one subject (converted)) it was 2.93 h. Besides, the “main metabolite of the free base identified in serum samples” value in [2] was “five out of six subjects”. Also, the “observable cholinergic side effects” value in data set [3] (1 mg total dose cohort, 6 subjects) was “none of the subjects”. The “subjects with mild hypersalivation” value in data set [3] (5 mg cohort) is reported as “One”. Besides, in [3] (5 mg cohort), the “subjects with mild, transient diaphoresis” value is reported as “Two”. The “subjects with moderate diaphoresis” value in [3] (5 mg cohort) was “two”. Moreover, in data set [3] (5 mg cohort, 6 subjects), the “signs of muscarinic cholinergic activity” value is given as “four subjects showed signs of muscarinic cholinergic activity”.

The Kp is the ratio of the level in a tissue or fluid to that in plasma or blood. On to `CCc1noc(C2CN=CNC2)n1` (stereo not drawn) [Compound 18, 3-ethyl-5-(1,4,5,6-tetrahydropyrimidin-5-yl)-1,2,4-oxadiazole], for which the “PAMPA (? × 106)” value in “PAMPA test” is given as 0.05 ? × 106. The “activity in the apomorphine induced climbing model” value in data set [4] is “inactive”. Besides, the “Brain Cmax (10 mg/kg po) MCD-386 = 1.00” value in data set [5] came to 1.00. Also, the Kp at 1 hour in data set [6] lay in the range of 0.07 to 0.13. Moreover, in data set [7], the “Presence of metabolites (10 mg/kg po)” value was “Yes”. Besides, the concentration at 30 minutes in data set [8] (other: iontophoresis patch (transdermal), 3.2 mg/kg, iontophoresis patch, dose 3.2 mg/kg) was around 0.85 µM; in data set [8] (po, 10 mg/kg, oral gavage) it was 0.911 µM.
